Our source for the EC50 values is US20250368628A1, “METHODS AND COMPOUNDS FOR MODULATING INHERITED GENETIC DISEASES” (Design Therapeutics, Inc., priority 2022, published 2025).

pEC50: −log10 of the molar value. A value given as a limit tells only on which side of the number the result lay.

This assay has as its system Myotonic Dystrophy 1 affected patient fibroblasts (Coriel GM04602; 1600 CTG repeats). Briefly: DM1 foci reduction assay (EC50 assay; CAG10-Cy3 FISH, foci per nucleus). It is filed as cell-based. Conditions: Homo sapiens, Fibroblast; DM1 patient fibroblasts, 48 h treatment, foci per nucleus; read-out: DM1 EC50, 48 h. On the procedure:
DM1 Foci Reduction Assay Methods
Myotonic Dystrophy 1 affected patient fibroblasts (Coriel GM04602; 1600 CTG repeats) and wild type fibroblasts (Coriell GM07492; control line) were cultured separately in Gibco DMEM (1×)+4.5 g/L D-Glucose+L-Glutamine+[…] Sodium Pyruvate, supplemented with 10% FBS and 1× Pen/Strep. Cells were maintained in an incubator at 37° C. and 5% CO2 with media refreshed every 48-72 hours.
At 90-95% confluency, both cell lines were harvested using Trypl-E then pelleted at 500×g for 5 minutes and were resuspended in fresh media. DM1 fibroblasts were seeded in Agilent 96 well black plates at a density of 5,000 cells/well in 200 μL media; and 8 wells were reserved for control fibroblasts. Plates were returned to incubator for 24 hours at 37° C. and 5% CO2.
Compounds were diluted from 10 mM stock to 1 mM in DMSO and then diluted once more to 6 μM (2× concentration) in media. Media was removed from all plates and cells were replenished with 100 μL media. Cells were treated in 8-point dose response, 1:3 fold dilution, 3 μM top dose via addition of 100 μL of 6 μM (2× concentration) compound to the 100 μL media with cells. Plates were returned to incubator for 48 hours at 37° C. and 5% CO2.
Following treatment, compounds were removed, and plates were washed with PBS, then cells were fixed in 75 μL 4% PFA solution for 20 minutes at room temperature. Plates were washed twice with PBS and twice with cold 70% ethanol before permeabilization with 250 μL cold 70% ethanol for 24-72 hours at −20° C.
After permeabilization, plates were washed once with a 30% formamide and 2×SSC buffer and rehydrated in that buffer for 15 minutes at room temperature. Cells were incubated overnight at 37° C. in 75 μL of a hybridization solution containing 30% formamide, 2×SSC, 25 mg/mL dextran sulfate, 2.5 mg/mL BSA, 0.2 μg/mL Herring sperm DNA, 2 mM vanadyl-ribonucleoside complex, and 5 nM CAG10-Cy3 probe.
Plates were washed once with 30% formamide in 2×SSC buffer, then twice with the buffer for 30 minutes at 37° C., 300 RPM in an incubating plate shaker. Cells were stained with 75 μL of 2.5 μg/mL DAPI in PBS for 5 minutes at room temperature. Plates were then washed twice with PBS and stored in 250 μL PBS. Plates were sealed with adhesive foil and wiped down with 70% ethanol.
Cells were imaged on a Cytation5 with a 20× objective sampling from 4 areas of each well. Nuclei were captured under DAPI channel and foci under RFP channel. Plates were analyzed on an average foci per nucleus per well basis.
As for `CCOC(=O)CCNC(=O)c1nc(NC(=O)c2cc(NC(=O)CCNC(=O)c3nc(NC(=O)CCCNC(=O)c4cc(NC(=O)c5nc(NC(=O)CCNC(=O)c6cc(NC(=O)c7nccn7C)cn6C)cn5C)cn4C)cn3C)cn2C)cn1C` [Compound B-65], the pEC50 was 6.30 to 7.00.

For the molecule `CCN(CC)CCCC[C@H](NC(=O)c1cccc(C(=O)OC(C)(C)C)c1)C(=O)NCCOCCOCCOCCOCCOCCNC(=O)c1nc(NC(=O)c2cc(NC(=O)CCNC(=O)c3nc(NC(=O)CCCNC(=O)c4cc(NC(=O)c5nc(NC(=O)CCNC(=O)c6cc(NC(=O)c7nccn7C)cn6C)cn5C)cn4C)cn3C)cn2C)cn1C` [Compound B-344], the pEC50 is 6.00 to 6.30.

`COCCOCCOCCOCCN(CCOCCOCCOCCOC)C(=O)CCCCn1cc(NC(=O)c2nc(NC(=O)CCNC(=O)c3cc(NC(=O)c4nccn4C)cn3C)cn2C)cc1C(=O)NCCCC(=O)Nc1cn(C)c(C(=O)NCCC(=O)Nc2cc(C(=O)Nc3cn(C)c(C(=O)NCCC(=O)N4CCC(C#CC#CC5CCN(C(C)=O)CC5)CC4)n3)n(C)c2)n1` [Compound B-259]: the pEC50 was under 6.00.

Turning to `CN(C)CCCNC(=O)c1cc(NC(=O)CCNC(=O)c2nc(NC(=O)CCCNC(=O)c3cc(NC(=O)c4nc(NC(=O)CCNC(=O)c5cc(NC(=O)c6nccn6C)cn5C)cn4C)cn3C)cn2C)cn1C` [Compound B-212], the pEC50 was under 6.00.

`CCN(CC)CCCC[C@@H](NC(C)=O)C(=O)NCCOCCOCCNC(=O)CCNC(=O)c1nc(NC(=O)c2cc(NC(=O)CCNC(=O)c3nc(NC(=O)CCCNC(=O)c4cc(NC(=O)c5nc(NC(=O)CCNC(=O)c6cc(NC(=O)c7nccn7C)cn6C)cn5C)cn4C)cn3C)cn2C)cn1C` [Compound B-102]: the pEC50 is 6.00 to 6.30.

Regarding `Cn1cc(NC(=O)c2nc(NC(=O)CCNC(=O)c3cc(NC(=O)c4nccn4C)cn3C)cn2C)cc1C(=O)NCCCC(=O)Nc1cn(C)c(C(=O)NCCC(=O)Nc2cc(C(=O)Nc3cn(C)c(C(=O)NCCC(=O)N4CCC(C#CC5(O)CCNCC5)CC4)n3)n(C)c2)n1` [Compound B-198], the pEC50 is 6.00 to 6.30.

For the molecule `Cn1cc(NC(=O)c2nc(NC(=O)CCNC(=O)c3cc(NC(=O)c4nccn4C)cn3C)cn2C)cc1C(=O)NCCCC(=O)Nc1cn(C)c(C(=O)NCCC(=O)Nc2cc(C(=O)Nc3cn(C)c(C(=O)NCCC(=O)NCCCN=C(N)N)n3)n(C)c2)n1` [Compound B-34], the pEC50 was 6.00 to 6.30.

For `CCCNC(=O)c1cc(NC(=O)c2nc(NC(=O)CCNC(=O)c3cc(NC(=O)c4nc(NC(=O)[C@@H](CCNC(=O)c5cc(NC(=O)c6nc(NC(=O)CCNC(=O)c7cc(NC(=O)c8nccn8C)cn7C)cn6C)cn5C)NC(C)=O)cn4C)cn3C)cn2C)cn1C` [Compound B-7], the pEC50 was 6.00 to 6.30.

In the case of `COCCOCCOCCOCCN(CCCCCn1cc(NC(=O)c2nc(NC(=O)CCNC(=O)c3cc(NC(=O)c4nccn4C)cn3C)cn2C)cc1C(=O)NCCCC(=O)Nc1cn(C)c(C(=O)NCCC(=O)Nc2cc(C(=O)Nc3cn(C)c(C(=O)NCCC(=O)N4CCC(N5CCNCC5)CC4)n3)n(C)c2)n1)CCOCCOCCOCCOC` [Compound B-162], the pEC50 was under 6.00.

On to `CCCNC(=O)CCNC(=O)c1nc(NC(=O)c2cc(NC(=O)CCNC(=O)c3nc(NC(=O)CCCNC(=O)c4cc(NC(=O)c5nc(NC(=O)CCNC(=O)c6cc(NC(=O)c7nccn7C)c[nH]6)cn5C)c[nH]4)cn3C)c[nH]2)cn1C` [Compound B-62], for which the pEC50 was under 6.00.

On to `CCN(CC)CCCC[C@@H](NC(C)=O)C(=O)NCCOCCOCCNC(=O)CCNC(=O)c1nc(NC(=O)CCNC(=O)c2cc(NC(=O)c3nc(NC(=O)CCCNC(=O)c4cc(NC(=O)c5nc(NC(=O)CCNC(=O)c6cc(NC(C)c7nccn7C)cn6C)cn5C)cn4C)cn3C)cn2C)cn1C` (some centres unmarked) [Compound B-97], for which the pEC50 is 6.30 to 7.00.

For `CCCN(CCC)C(=O)c1nc(NC(=O)c2cc(NC(=O)CCNC(=O)c3nc(NC(=O)CCCNC(=O)c4cc(NC(=O)c5nc(NC(=O)CCNC(=O)c6cc(NC(=O)c7nccn7C)cn6C)cn5C)cn4C)cn3C)cn2C)cn1C` [Compound B-104], the pEC50 is under 6.00.

For the molecule `CCCNC(=O)CCNC(=O)c1nc(NC(=O)c2cc(NC(=O)CCNC(=O)c3nc(NC(=O)CCCNC(=O)c4cc(NC(=O)c5nc(NC(=O)CCNC(=O)c6cc(NC(=O)c7nccn7C)cn6C)cn5C)cn4C)cn3C)cn2CCCCCCN=[N+]=[N-])cn1C` [Compound B-56], the pEC50 was 6.30 to 7.00.

As to `CCCCCNC(=O)CCNC(=O)c1nc(NC(=O)c2cc(NC(=O)CCNC(=O)c3nc(NC(=O)CCCNC(=O)c4cc(NC(=O)c5nc(NC(=O)CCNC(=O)c6cc(NC(=O)c7nccn7C)cn6C)cn5C)cn4CCCCC(=O)N(CCOCCOCCOCCOC)CCOCCOCCOCCOC)cn3C)cn2C)cn1C` [Compound B-261], the pEC50 is 6.30 to 7.00.

Consider `CN1CCN(CC2CCN(C(=O)CCNC(=O)c3nc(NC(=O)c4cc(NC(=O)CCNC(=O)c5nc(NC(=O)CCCNC(=O)c6cc(NC(=O)c7nc(NC(=O)CCNC(=O)c8cc(NC(=O)c9nccn9C)cn8C)cn7C)cn6C)cn5C)cn4C)cn3C)CC2)CC1` [Compound B-129], for which the pEC50 is 6.30 to 7.00.

Regarding `CCN(CC)CCCC[C@H](NC(=O)C1CCN(C)CC1)C(=O)NCCOCCOCCOCCOCCOCCNC(=O)CCNC(=O)c1nc(NC(=O)c2cc(NC(=O)CCNC(=O)c3nc(NC(=O)CCCNC(=O)c4cc(NC(=O)c5nc(NC(=O)CCNC(=O)c6cc(NC(=O)c7nccn7C)cn6C)cn5C)cn4C)cn3C)cn2C)cn1C` [Compound B-96], the pEC50 was 6.30 to 7.00.

With `COC(=O)c1cccc(OCCOCCOCCNC(=O)c2nc(NC(=O)c3cc(NC(=O)CCNC(=O)c4nc(NC(=O)CCCNC(=O)c5cc(NC(=O)c6nc(NC(=O)CCNC(=O)c7cc(NC(=O)c8nccn8C)cn7C)cn6C)cn5C)cn4C)cn3C)cn2C)c1` [Compound B-339], the negative logarithm of the EC50 (pEC50) was 6.00 to 6.30.

Consider `Cn1cc(NC(=O)c2nc(NC(=O)CCNC(=O)c3cc(NC(=O)c4nccn4C)cn3C)cn2C)cc1C(=O)NCCCC(=O)Nc1cn(C)c(C(=O)NCCC(=O)Nc2cc(C(=O)Nc3cn(C)c(C(=O)NCCCCNc4cccc(C(=O)O)c4)n3)n(C)c2)n1` [Compound B-218], for which the pEC50 was 6.30 to 7.00.

As to `Cn1cc(NC(=O)c2nc(NC(=O)CCNC(=O)c3cc(NC(=O)c4nccn4C)cn3C)cn2C)cc1C(=O)NCCCC(=O)Nc1cn(C)c(C(=O)NCCC(=O)Nc2cc(C(=O)Nc3cn(C)c(C(=O)NCCC(=O)N4CCC(O)(C#CC5CCN(C(=O)OC(C)(C)C)CC5)CC4)n3)n(C)c2)n1` [Compound B-195], the pEC50 is under 6.00.

For `CC(=O)N1CCN(C2CCN(C(=O)CCNC(=O)c3nc(NC(=O)c4cc(NC(=O)CCNC(=O)c5nc(NC(=O)CCCNC(=O)c6cc(NC(=O)c7nc(NC(=O)CCNC(=O)c8cc(NC(=O)c9nccn9C)cn8C)cn7C)cn6C)cn5C)cn4C)cn3C)CC2)CC1` [Compound B-130], the pEC50 was 6.30 to 7.00.

For the molecule `CC(=O)N1CCC(NC(=O)CCNC(=O)c2nc(NC(=O)c3cc(NC(=O)CCNC(=O)c4nc(NC(=O)CCCNC(=O)c5cc(NC(=O)c6nc(NC(=O)CCNC(=O)c7cc(NC(=O)c8nccn8C)cn7C)cn6C)cn5C)cn4C)cn3C)cn2C)CC1` [Compound B-141], the pEC50 is under 6.00.

For `CCCNC(=O)c1nc(NC(=O)c2cc(NC(=O)CCNC(=O)c3nc(NC(=O)CCCNC(=O)c4cc(NC(=O)c5nc(NC(=O)CCNC(=O)c6cc(NC(=O)c7nccn7C)cn6C)cn5C)cn4CCCCCCN=[N+]=[N-])cn3C)cn2C)cn1C` [Compound B-231], the pEC50 is 6.30 to 7.00.

With `CN(C)CCCNC(=O)c1cc(NC(=O)CCNC(=O)c2nc(NC(=O)CCCNC(=O)c3cc(NC(=O)c4nc(NC(=O)CCNC(=O)c5cc(NC(=O)c6nccn6C)cn5C)cn4C)cn3CCCCCCN=[N+]=[N-])cn2C)cn1C` [Compound B-254], the pEC50 was under 6.00.
